The conditions of data set [1]: human, in vivo.
Method: (§1) Characteristic tandem-mass spectrometric fragmention of EtS, purchased from ABCR Karlsruhe/Germany, was obtained when analyzing EtS solution in product ion scan mode: deprotonated molecule (M-H)^−, m/z 125 and fragment ions m/z 80 and 97. An LC-MS/MS-method, which has previously been published for the determination of EtG (Weinmann 2004), was modified by inclusion of the transitions for EtS. Subsequent LC/MS/MS-analysis was performed in MRM-mode (m/z 125 to m/z 97 and m/z 80 and by monitoring the unfragmented precursor ion (m/z 125) of EtS (ion chromatograms of diluted reference solution see FIG. 1). A gradient elution with increasing acetonitrile concentration of the eluting solvent was used—all other chromatographic equipment was as described in the article by Weinmann et al. (Weinmann 2004).
(§2) Sample preparation was done by addition of D5-EtG and dilution of the urine sample prior to injection in the LC-MS/MS system. Quantification was performed using D5-EtG as internal standard.
For data set [2] the following is noted: cited from earlier work.
For data set [3] the following is noted: cited from earlier work. This is another data set of the same source.
Data set [4] in a line: Controlled drinking experiment with a healthy volunteer: urinary excretion profile by LC-MS/MS. As to conditions: for UAC (urine alcohol concentration): 540 ml wine, 49 g ethanol.
Method: as §1, §2

Structures can show the parent of a compound that is named as a salt. Where two headings read alike, the source gives them in different places. Some results are limits rather than exact numbers.

In the case of `CCOS(=O)(=O)O` [EtS, ethyl sulfate], in data set [1], the “time detectable in urine” value is listed as “up to 36 hours”.
`CCO[C@@H]1O[C@H](C(=O)O)[C@@H](O)[C@H](O)[C@H]1O` [EtG, ethyl glucuronide]: the “detection in urine at the last time point” value in data set [1] is reported as “positive”. Further, the “time detectable following complete elimination of alcohol from the body” value in data set [2] (dose-dependently, after even minor amounts of alcohol like 10 grams) is recorded as 4 days. In addition, the “time detectable in hair” value in data set [2] is “months”. Besides, the “time detectable in urine after cessation of ethanol intake” value in data set [2] (urine) was “up to 5 days”. Besides, in data set [3], the “water solubility (in words)” value is “water-soluble”.
With fatty acid ethyl esters [FAEEs], the “time detectable in hair” value is reported as “several months” in data set [2] and “months” in data set [2] (listed as FAEE). For the same compound, the “time detectable in serum and erythrocytes after drinking” value in data set [2] (serum and erythrocytes) is reported as “up to 24 h”. For the same compound, the “time detectable in serum after cessation of ethanol intake” value in data set [2] (serum) is given as “up to 24 h”. Besides, the “stability in blood samples (in words)” value in data set [3] (blood samples, continued enzyme activity) was “not stable”.
On to `CCO` [ethanol], for which the “time since which urinary ethanol (UAC) had not been detectable” value in data set [4] (counted back from the 36 hours time point) worked out at 23 h. The “UAC (urine alcohol concentration)” value came to 0.003 g % in data set [4] (0 h:min after ethanol uptake); 0.022 g % in data set [4] (1:00 h:min after ethanol uptake); 0.078 g % in data set [4] (2:06 h:min after ethanol uptake); 0.082 g % in data set [4] (2:46 h:min after ethanol uptake); 0.046 g % in data set [4] (8:00 h:min after ethanol uptake); 0.003 g % in data set [4] (11:20 h:min after ethanol uptake). Moreover, the “UAC (urine alcohol concentration)” value in data set [4] (13:20 h:min after ethanol uptake), in data set [4] (14:50 h:min after ethanol uptake), in data set [4] (16:40 h:min after ethanol uptake), in data set [4] (19:10 h:min after ethanol uptake), in data set [4] (21:30 h:min after ethanol uptake) and in data set [4] (26:30 h:min after ethanol uptake) was 0 g % throughout. The “UAC (urine alcohol concentration)” value in data set [4] (32:00 h:min after ethanol uptake) and in data set [4] (36:00 h:min after ethanol uptake) was 0 g % in each case.
phosphatidylethanol [PEth]: in data set [2] (whole blood), the “time detectable in whole blood after cessation of ethanol intake” value is given as over 2 weeks.

The record behind these values is patent publication US20060084134A1, “Direct ethanol metabolite ethyl sulfate as an useful diagnostic and therapeutic marker of alcohol consumption” (priority 2004, published 2006).
